Results from ChEMBL document CHEMBL4823275, “Structure-based molecular hybridization design of Keap1-Nrf2 inhibitors as novel protective agents of acute lung injury” (Eur J Med Chem, 2021).
The source made the active and inactive calls. The calls are words filed in the database; no cut-off is given here.

How the values were obtained:
[1] = Cytotoxicity against mouse peritoneal macrophages assessed as reduction in cell viability measured after 24 hrs by CCK8 assay; type: cell-based, Peritoneal macrophage
Keap1/Nrf2 = Keap1/Nrf2 (Homo sapiens, UniProt Q14145); test: Inhibition of Keap1-Nrf2 (unknown origin) interaction measured after 60 mins by Fluorescence polarization assay; type: protein assay
Sequence of Keap1/Nrf2 (Q16236 whole entry): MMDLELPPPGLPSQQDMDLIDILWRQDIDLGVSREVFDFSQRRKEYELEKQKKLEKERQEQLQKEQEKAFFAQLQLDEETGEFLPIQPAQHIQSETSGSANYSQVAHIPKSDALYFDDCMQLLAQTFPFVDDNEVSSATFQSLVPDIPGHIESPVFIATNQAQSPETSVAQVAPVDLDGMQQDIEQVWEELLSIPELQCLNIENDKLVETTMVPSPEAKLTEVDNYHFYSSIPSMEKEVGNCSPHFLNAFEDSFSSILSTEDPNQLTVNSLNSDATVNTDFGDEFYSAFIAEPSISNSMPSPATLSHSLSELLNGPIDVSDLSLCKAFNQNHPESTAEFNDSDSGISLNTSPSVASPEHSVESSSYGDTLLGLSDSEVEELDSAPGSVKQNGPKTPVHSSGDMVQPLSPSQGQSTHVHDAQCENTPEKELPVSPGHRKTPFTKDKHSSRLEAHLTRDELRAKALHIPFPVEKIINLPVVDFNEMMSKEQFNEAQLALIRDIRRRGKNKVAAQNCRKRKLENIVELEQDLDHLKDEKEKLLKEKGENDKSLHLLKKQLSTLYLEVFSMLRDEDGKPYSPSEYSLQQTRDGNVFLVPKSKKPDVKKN
Sequence of Keap1/Nrf2 (Q14145 whole entry): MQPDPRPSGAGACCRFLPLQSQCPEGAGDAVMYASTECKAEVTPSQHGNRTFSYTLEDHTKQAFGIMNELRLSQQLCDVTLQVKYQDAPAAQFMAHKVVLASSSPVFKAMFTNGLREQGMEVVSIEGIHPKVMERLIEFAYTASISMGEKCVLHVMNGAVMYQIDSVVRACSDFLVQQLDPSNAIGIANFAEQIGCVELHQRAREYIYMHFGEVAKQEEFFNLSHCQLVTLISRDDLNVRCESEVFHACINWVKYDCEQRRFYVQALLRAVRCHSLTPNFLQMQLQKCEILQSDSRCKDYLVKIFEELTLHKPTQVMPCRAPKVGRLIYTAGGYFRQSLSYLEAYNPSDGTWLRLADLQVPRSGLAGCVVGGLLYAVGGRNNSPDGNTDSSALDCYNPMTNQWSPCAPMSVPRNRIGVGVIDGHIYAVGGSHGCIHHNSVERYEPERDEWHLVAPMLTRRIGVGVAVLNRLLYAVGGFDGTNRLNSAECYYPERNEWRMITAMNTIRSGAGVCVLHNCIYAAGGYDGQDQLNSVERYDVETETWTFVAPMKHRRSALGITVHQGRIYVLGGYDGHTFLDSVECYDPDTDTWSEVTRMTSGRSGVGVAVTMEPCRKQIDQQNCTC

Peritoneal macrophage [2] = test: Antiinflammatory activity against mouse peritoneal macrophages assessed as inhibition of LPS-induced NO production at 10 uM measured after 24 hrs by Griess assay; type: functional, cell-based
[3] = target: T1, Kelch-like ECH-associated protein 1/Nuclear factor erythroid 2-related factor 2 (Mus musculus) (UniProt Q60795+Q9Z2X8); test: Inhibition of Keap1-Nrf2 interaction in mouse peritoneal macrophages assessed as upregulation of NQO1 protein expression at 10 uM by Western blot analysis; type: tissue-based; conditions: Peritoneal macrophage, time 1-6 hrs, TDE = time-dependent effect
T1 sequence (Q60795 whole entry, looked up): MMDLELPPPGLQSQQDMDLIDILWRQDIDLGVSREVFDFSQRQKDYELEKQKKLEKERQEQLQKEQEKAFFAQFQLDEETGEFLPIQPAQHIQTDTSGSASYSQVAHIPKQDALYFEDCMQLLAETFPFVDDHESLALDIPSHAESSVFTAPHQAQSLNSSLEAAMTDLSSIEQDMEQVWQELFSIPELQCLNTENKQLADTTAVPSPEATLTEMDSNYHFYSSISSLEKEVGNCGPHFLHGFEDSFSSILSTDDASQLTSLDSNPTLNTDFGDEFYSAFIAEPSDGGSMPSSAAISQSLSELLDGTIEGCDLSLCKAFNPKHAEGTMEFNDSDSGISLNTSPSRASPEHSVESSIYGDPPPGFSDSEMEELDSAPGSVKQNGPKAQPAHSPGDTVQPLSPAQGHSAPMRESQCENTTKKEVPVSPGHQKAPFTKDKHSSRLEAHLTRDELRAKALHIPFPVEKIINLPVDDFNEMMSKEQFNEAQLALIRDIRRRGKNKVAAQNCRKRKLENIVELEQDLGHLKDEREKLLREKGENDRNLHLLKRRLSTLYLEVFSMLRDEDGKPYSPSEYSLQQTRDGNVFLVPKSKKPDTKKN
T1 sequence (Q9Z2X8 whole entry, looked up): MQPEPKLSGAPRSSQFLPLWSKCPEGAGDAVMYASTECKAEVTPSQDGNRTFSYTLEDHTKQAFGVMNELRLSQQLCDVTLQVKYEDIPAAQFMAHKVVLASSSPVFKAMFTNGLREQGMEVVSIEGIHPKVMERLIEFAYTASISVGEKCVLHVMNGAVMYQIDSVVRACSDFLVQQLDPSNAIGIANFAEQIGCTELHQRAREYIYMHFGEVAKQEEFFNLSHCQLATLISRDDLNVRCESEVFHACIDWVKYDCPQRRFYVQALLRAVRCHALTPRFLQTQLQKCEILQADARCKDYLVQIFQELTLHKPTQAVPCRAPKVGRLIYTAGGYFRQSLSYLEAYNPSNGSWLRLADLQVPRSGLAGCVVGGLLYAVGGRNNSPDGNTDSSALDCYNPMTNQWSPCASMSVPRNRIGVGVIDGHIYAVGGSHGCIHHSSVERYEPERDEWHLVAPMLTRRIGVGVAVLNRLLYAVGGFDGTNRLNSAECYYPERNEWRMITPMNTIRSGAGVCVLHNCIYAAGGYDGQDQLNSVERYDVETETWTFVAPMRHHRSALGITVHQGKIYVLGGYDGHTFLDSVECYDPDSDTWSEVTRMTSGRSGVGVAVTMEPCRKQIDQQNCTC

[4] = target: T1, Kelch-like ECH-associated protein 1/Nuclear factor erythroid 2-related factor 2 (Mus musculus); test: Inhibition of Keap1-Nrf2 interaction in mouse peritoneal macrophages assessed as increase in nuclear translocation of Nrf2 by measuring increase in nuclear Nrf2 level at 10 uM measured after 3 to 6 hrs by Western blot analysis; type: subcellular; conditions: Peritoneal macrophage, Nucleus, time 3-6 hrs
[5] = target: T1, Kelch-like ECH-associated protein 1/Nuclear factor erythroid 2-related factor 2 (Mus musculus); test: Inhibition of Keap1-Nrf2 interaction in mouse peritoneal macrophages assessed as upregulation of HO-1 protein expression at 10 uM by Western blot analysis; type: tissue-based; conditions: Peritoneal macrophage, time 1-6 hrs, TDE = time-dependent effect
[6] = target: T1, Kelch-like ECH-associated protein 1/Nuclear factor erythroid 2-related factor 2 (Mus musculus); test: Inhibition of Keap1-Nrf2 interaction in mouse peritoneal macrophages assessed as increase in nuclear translocation of Nrf2 by measuring decrease in cytosolic Nrf2 level at 10 uM measured after 3 to 6 hrs by Western blot analysis; type: subcellular; conditions: Peritoneal macrophage, Cytosol, time 3-6 hrs
Peritoneal macrophage [7] = test: Antiinflammatory activity against mouse peritoneal macrophages assessed as inhibition of LPS-stimulated ROS production at 10 uM incubated for 6 hrs by DCFH-DA staining based fluorescence analysis; type: functional, cell-based
Peritoneal macrophage [8] = test: Antiinflammatory activity against mouse peritoneal macrophages assessed as reduction in LPS-induced TNFalpha production at 10 uM measured after 24 hrs by ELISA; type: functional, cell-based
Mus musculus [9] = test: (§1) Antiinflammatory activity against LPS-induced acute lung injury C57BL/6 mouse model assessed as mild alveolar thickening with less bleeding points/congestion in lungs at 5 to 20 mg/kg, ip treated 0.5 hrs before LPS stimulation and measured after 6 hrs by hematoxylin and eosin staining based microscopic analysis; type: functional, organism-based; conditions: dose 5-20 mg/kg, time 6.5 hrs
Mus musculus [10] = test: Anti-inflammatory activity against LPS-induced acute lung injury C57BL/6 mouse model assessed as reduction in LPS-induced IL-1 beta mRNA expression in lungs at 5 to 20 mg/kg, ip treated 0.5 hrs before LPS stimulation and measured after 6 hrs by RT-PCR analysis; type: functional, organism-based; conditions: dose 5-20 mg/kg, time 6.5 hrs
Mus musculus [11] = test: as §1, with “intact” for “mild”, “structure” for “thickening”, “reduced inflammatory cells infiltration” for “less bleeding points/congestion”; type: functional, organism-based; conditions: dose 5-20 mg/kg, time 6.5 hrs
Mus musculus [12] = test: Anti-inflammatory activity against LPS-induced acute lung injury C57BL/6 mouse model assessed as reduction in LPS-induced IL-6 mRNA expression in lungs at 5 to 20 mg/kg, ip treated 0.5 hrs before LPS stimulation and measured after 6 hrs by RT-PCR analysis; type: functional, organism-based; conditions: dose 5-20 mg/kg, time 6.5 hrs
Mus musculus [13] = test: (§2) In vivo inhibition of Keap1-Nrf2 interaction in LPS-induced acute lung injury C57BL/6 mouse model assessed as increase in Nrf2 nuclear translocation in lungs by measuring increase in nuclear Nrf2 level treated intraperitoneally at 0.5 hrs before LPS stimulation and measured after 6 hrs by western blot analysis; type: functional, organism-based; conditions: dose 5-20 mg/kg, time 6.5 hrs
Mus musculus [14] = test: Anti-inflammatory activity against LPS-induced acute lung injury C57BL/6 mouse model assessed as reduction in LPS-induced IL-1 beta secretion in BALF at 5 to 20 mg/kg, ip treated 0.5 hrs before LPS stimulation and measured after 6 hrs by ELISA; type: functional, organism-based; conditions: dose 5-20 mg/kg, time 6.5 hrs
Mus musculus [15] = test: Anti-inflammatory activity against LPS-induced acute lung injury C57BL/6 mouse model assessed as reduction in LPS-induced TNF-alpha secretion in BALF at 5 to 20 mg/kg, ip treated 0.5 hrs before LPS stimulation and measured after 6 hrs by ELISA; type: functional, organism-based; conditions: dose 5-20 mg/kg, time 6.5 hrs
Mus musculus [16] = test: as §2, with “measuring decrease” for “measuring increase”, “in cytosolic” for “in nuclear”; type: functional, organism-based; conditions: dose 5-20 mg/kg, time 6.5 hrs
Mus musculus [17] = test: Anti-inflammatory activity against LPS-induced acute lung injury C57BL/6 mouse model assessed as reduction in LPS-induced TNF-alpha mRNA expression in lungs at 5 to 20 mg/kg, ip treated 0.5 hrs before LPS stimulation and measured after 6 hrs by RT-PCR analysis; type: functional, organism-based; conditions: dose 5-20 mg/kg, time 6.5 hrs

With `COc1ccc(S(=O)(=O)N(CC(N)=O)c2ccc(N(CC(N)=O)S(=O)(=O)c3ccc(SCCCCCN=C=S)cc3)c3ccccc23)cc1` the CC50 at 24 h [1] was > 10 µM and the Kd (Keap1/Nrf2) was > 10 µM.

With `COc1ccc(S(=O)(=O)N(CC(N)=O)c2ccc(N(CC(N)=O)S(=O)(=O)c3ccc(SCCCCN=C=S)cc3)c3ccccc23)cc1` the CC50 at 24 h [1] was > 10 µM and the Kd (Keap1/Nrf2) was > 10 µM.

For `COc1ccc(S(=O)(=O)N(CC(N)=O)c2ccc(N(CC(N)=O)S(=O)(=O)c3ccc([S+]([O-])CCCCN=C=S)cc3)c3ccccc23)cc1` (centres undefined), the CC50 at 24 h [1] was > 10 µM and the Kd (Keap1/Nrf2) was 1.27 µM.

For `COc1ccc(S(=O)(=O)N(CC(N)=O)c2ccc(N(CC(N)=O)S(=O)(=O)c3ccc([S+]([O-])CCOCCOCCOCCN=C=S)cc3)c3ccccc23)cc1` (centres undefined), the CC50 at 24 h [1] was > 10 µM and the Kd (Keap1/Nrf2) was > 10 µM.

In the case of `COc1ccc(S(=O)(=O)N(CC(N)=O)c2ccc(N(CC(N)=O)S(=O)(=O)c3ccc(SCCN=C=S)cc3)c3ccccc23)cc1`, the CC50 at 24 h [1] is reported as > 10 µM and the Kd (Keap1/Nrf2) is reported as 3.5 µM.

In the case of `C[S+]([O-])CCCCN=C=S` (centres undefined) [SULFORAPHANE], the CC50 at 24 h [1] is reported as > 10 µM, the Activity (Peritoneal macrophage [2]) is reported as “Active” and the inhibition [3] is reported as “Tde”. The inhibition [4] was “Active”, the inhibition [5] was “Tde” and the inhibition [6] was “Active”. The Activity (Peritoneal macrophage [7]) was “Active” and the Activity (Peritoneal macrophage [8]) was “Active”.

In the case of `COc1ccc(S(=O)(=O)N(CC(N)=O)c2ccc(N(CC(N)=O)S(=O)(=O)c3ccc(SCCOCCOCCN=C=S)cc3)c3ccccc23)cc1`, the CC50 at 24 h [1] is reported as > 10 µM and the Kd (Keap1/Nrf2) is reported as > 10 µM.

In the case of `COc1ccc(S(=O)(=O)N(CC(N)=O)c2ccc(N(CC(N)=O)S(=O)(=O)c3ccc(S(=O)(=O)CCOCCOCCN=C=S)cc3)c3ccccc23)cc1`, the CC50 at 24 h [1] is reported as > 10 µM and the Kd (Keap1/Nrf2) is reported as 1.22 µM.

For `COc1ccc(S(=O)(=O)N(CC(N)=O)c2ccc(N(CC(N)=O)S(=O)(=O)c3ccc(SCCCN=C=S)cc3)c3ccccc23)cc1`, the CC50 at 24 h [1] was > 10 µM and the Kd (Keap1/Nrf2) was > 10 µM.

In the case of `COc1ccc(S(=O)(=O)N(CC(N)=O)c2ccc(N(CC(N)=O)S(=O)(=O)c3ccc([S+]([O-])CCCCCN=C=S)cc3)c3ccccc23)cc1` (centres undefined), the CC50 at 24 h [1] is reported as > 10 µM and the Kd (Keap1/Nrf2) is reported as 1.83 µM.

In the case of `COc1ccc(S(=O)(=O)N(CC(N)=O)c2ccc(N(CC(N)=O)S(=O)(=O)c3ccc([S+]([O-])CCOCCOCCN=C=S)cc3)c3ccccc23)cc1` (centres undefined), the CC50 at 24 h [1] is reported as > 10 µM and the Kd (Keap1/Nrf2) is reported as 1.09 µM.

In the case of `COc1ccc(S(=O)(=O)N(CC(N)=O)c2ccc(N(CC(N)=O)S(=O)(=O)c3ccc(SCCOCCN=C=S)cc3)c3ccccc23)cc1`, the CC50 at 24 h [1] is reported as > 10 µM and the Kd (Keap1/Nrf2) is reported as 8.51 µM.

With `COc1ccc(S(=O)(=O)N(CC(N)=O)c2ccc(N(CC(N)=O)S(=O)(=O)c3ccc(N=C=S)cc3)c3ccccc23)cc1` the CC50 at 24 h [1] was > 10 µM, the Activity (Peritoneal macrophage [2]) was “Active” and the Kd (Keap1/Nrf2) was 0.106 µM. For the same molecule, the Activity (Peritoneal macrophage [7]) was “Active” and the Activity (Peritoneal macrophage [8]) was “Active”.

For `COc1ccc(S(=O)(=O)N(CC(N)=O)c2ccc(N(CC(N)=O)S(=O)(=O)c3ccc(S(=O)(=O)CCCN=C=S)cc3)c3ccccc23)cc1`, the CC50 at 24 h [1] was > 10 µM and the Kd (Keap1/Nrf2) was > 10 µM.

For `COc1ccc(S(=O)(=O)N(CC(N)=O)c2ccc(N(CC(N)=O)S(=O)(=O)c3ccc(S(=O)(=O)CCOCCN=C=S)cc3)c3ccccc23)cc1`, the CC50 at 24 h [1] was > 10 µM and the Kd (Keap1/Nrf2) was 2.3 µM.

For `COc1ccc(S(=O)(=O)N(CC(N)=O)c2ccc(N(CC(N)=O)S(=O)(=O)c3ccc([S+]([O-])CCN=C=S)cc3)c3ccccc23)cc1` (centres undefined), the CC50 at 24 h [1] was > 10 µM and the Kd (Keap1/Nrf2) was 1.49 µM.

In the case of `COc1ccc(S(=O)(=O)N(CC(N)=O)c2ccc(N(CC(N)=O)S(=O)(=O)c3ccc([S+]([O-])CCCN=C=S)cc3)c3ccccc23)cc1` (centres undefined), the CC50 at 24 h [1] is reported as > 10 µM, the Activity (Mus musculus [9]) is reported as “Active” and the Activity (Peritoneal macrophage [2]) is reported as “Active”. The inhibition [3] was “Tde”, the Activity (Mus musculus [10]) was “Active” and the inhibition [4] was “Active”. The inhibition [5] was “Tde”, the Activity (Mus musculus [11]) was “Active” and the inhibition [6] was “Active”. The Activity (Mus musculus [12]) was “Active”, the Kd (Keap1/Nrf2) was 0.455 µM and the inhibition (Mus musculus [13]) was “Dose-Dependent Effect”. The Activity (Mus musculus [14]) was “Active”, the Activity (Peritoneal macrophage [7]) was “Active” and the Activity (Mus musculus [15]) was “Active”. For the same molecule, the inhibition (Mus musculus [16]) was “Dose-Dependent Effect”, the Activity (Mus musculus [17]) was “Active” and the Activity (Peritoneal macrophage [8]) was “Active”.

In the case of `COc1ccc(S(=O)(=O)N(CC(N)=O)c2ccc(N(CC(N)=O)S(=O)(=O)c3ccc(S(=O)(=O)CCN=C=S)cc3)c3ccccc23)cc1`, the CC50 at 24 h [1] is reported as > 10 µM, the Activity (Peritoneal macrophage [2]) is reported as “Active” and the Kd (Keap1/Nrf2) is reported as 0.658 µM. The Activity (Peritoneal macrophage [7]) was “Active” and the Activity (Peritoneal macrophage [8]) was “Active”.

For `COc1ccc(S(=O)(=O)N(CC(N)=O)c2ccc(N(CC(N)=O)S(=O)(=O)c3ccc(S(=O)(=O)CCCCCN=C=S)cc3)c3ccccc23)cc1`, the CC50 at 24 h [1] was > 10 µM and the Kd (Keap1/Nrf2) was > 10 µM.

In the case of `COc1ccc(S(=O)(=O)N(CC(N)=O)c2ccc(N(CC(N)=O)S(=O)(=O)c3ccc(S(=O)(=O)CCCCN=C=S)cc3)c3ccccc23)cc1`, the CC50 at 24 h [1] is reported as > 10 µM and the Kd (Keap1/Nrf2) is reported as > 10 µM.

With `COc1ccc(S(=O)(=O)N(CC(N)=O)c2ccc(N(CC(N)=O)S(=O)(=O)c3ccc([S+]([O-])CCOCCN=C=S)cc3)c3ccccc23)cc1` (centres undefined) the CC50 at 24 h [1] was > 10 µM and the Kd (Keap1/Nrf2) was 3.08 µM.

In the case of `COc1ccc(S(=O)(=O)N(CC(N)=O)c2ccc(N(CC(N)=O)S(=O)(=O)c3ccc(SCCOCCOCCOCCN=C=S)cc3)c3ccccc23)cc1`, the CC50 at 24 h [1] is reported as > 10 µM and the Kd (Keap1/Nrf2) is reported as > 10 µM.

For `COc1ccc(S(=O)(=O)N(CC(N)=O)c2ccc(N(CC(N)=O)S(=O)(=O)c3ccc(S(=O)(=O)CCOCCOCCOCCN=C=S)cc3)c3ccccc23)cc1`, the CC50 at 24 h [1] was > 10 µM and the Kd (Keap1/Nrf2) was > 10 µM.
